In the NIST ThermoML archive (doi:10.1021/je050462y):
± gives the expanded uncertainty stated by the source.

Assays:
[1] = 101.33 kPa, Liquid
[2] = wn = mass fraction of the nth substance listed; settings: 101 kPa, Liquid; for mass density: w1 = 0.3; for viscosity: Capillary tube (Ostwald / Ubbelohde) method, w1 = 0.5

## CC(C)(N)CO [2-amino-2-methylpropan-1-ol]
[1]; 313.15 K
  mass density: 917.2 ± 0.6 kg/m3
[1]; 323.15 K
  mass density: 909.2 ± 0.6 kg/m3
[1]; 333.15 K
  mass density: 900.7 ± 0.6 kg/m3

## OCCNCCO [diethanolamine]
[1]; 313.15 K
  mass density: 1084.7 ± 0.3 kg/m3
[1]; 323.15 K
  mass density: 1077.4 ± 0.3 kg/m3
[1]; 333.15 K
  mass density: 1070.3 ± 0.3 kg/m3

## OCCNCCO [diethanolamine] + O
[2]; 313.15 K
  mass density: 1026 ± 0.5 kg/m3
[2]; 323.15 K
  mass density: 1021.3 ± 0.5 kg/m3
[2]; 333.15 K
  mass density: 1014.4 ± 0.4 kg/m3

## CN(CCO)CCO [N-methyldiethanolamine]
[1]; 313.15 K
  mass density: 1025 ± 0.6 kg/m3
[1]; 323.15 K
  mass density: 1017.4 ± 0.6 kg/m3
[1]; 333.15 K
  mass density: 1009.6 ± 0.6 kg/m3

## CN(CCO)CCO [N-methyldiethanolamine] + O
[2]; 303.15 K
  viscosity: 7.39 ± 0.07 mPa·s
[2]; 313.15 K
  viscosity: 5.08 ± 0.05 mPa·s
  mass density: 1017.1 ± 0.6 kg/m3
[2]; 323.15 K
  viscosity: 3.62 ± 0.03 mPa·s
  mass density: 1011.5 ± 0.6 kg/m3
[2]; 333.15 K
  viscosity: 2.72 ± 0.03 mPa·s
  mass density: 1004.1 ± 0.6 kg/m3
